Patent US20250099433A1, “COMPOSITION AND METHOD FOR TREATMENT OF GRAM NEGATIVE BACTERIAL INFECTION” (The Research Foundation for the State University of New York, priority 2021, published 2025)
Values after ≈ are worked out from the molar mass of the structure shown. Values joined by “and” are separate entries in the source; they are usually repeats but may differ in a detail not shown here. Identical values can stand only once. Like-named read-outs stand apart in the source and are kept apart here.

How the values were obtained:
paLpxC [1] = target: T1, paLpxC (Pseudomonas aeruginosa (strain ATCC 15692 / DSM 22644 / CIP 104116 / JCM 14847 / LMG 12228 / 1C / PRS 101 / PAO1), UniProt P47205); test: biochemical; type: binding; conditions: for tR (min) Fluorescence assay: tR = 1/koff; for residence time fold longer than 1: fluorescence assay; for kon: read-out: Kon (μM^−1s^−1)
P. aeruginosa PAO1 [2] = test: MIC by microbroth dilution, P. aeruginosa PAO1; conditions: for MIC: Pseudomonas aeruginosa, PAO1, read-out: MIC (μM) (PAO1)
[3] = test system: efflux-pump mutant strain (ΔMexABCDXY) (paEP); test: MIC by microbroth dilution, efflux-pump mutant P. aeruginosa; conditions: for MIC: Pseudomonas aeruginosa, read-out: MIC (μM) (paEP)
Description: Bacterial Strains. […] The efflux-pump deficient P. aeruginosa strain (ΔMexABCDXY), N150, was derived from PAO1.
Minimum Inhibitory Concentration (MIC) Measurements.

P. aeruginosa PAO1 [4] = test: Post-antibiotic effect (PAE) in P. aeruginosa PAO1; conditions: PAO1, 4xMIC for 1 h, 37° C.
Description: Post-antibiotic effect of the paLpxC inhibitors on wild-type P. aeruginosa. […] The experimental data points are the mean values from triplicate, independent measurements, and the error bars represent the standard deviation from the mean.
After incubating the plates overnight at 37° C., CFUs were enumerated, and the PAE values were calculated using a standard method where the time for the bacteria to recover 1 log post drug washout compared to the control was determined (FIG. 17, Table 6).
Post-antibiotic Effect (PAE). PAEs were determined using P. aeruginosa PAO1. […] The compound was washed out by diluting the culture 1000-fold into fresh CAMH-II medium, and the regrowth of bacteria was monitored by taking 100 μL aliquots each hour and plating serial dilutions on Muller-Hinton agar plates.

paLpxC [5] = target: T1, paLpxC; test: Spin column (Penefsky) residence time assay on paLpxC; type: binding; conditions: 37° C.
Description: FIG. 14. Spin-column assay. A spin-column assay was used to quantify the residence time of inhibitors on paLpxC at 37° C. […] Samples were then subjected to size exclusion chromatography at different times using a Spin-Trap G-25 column (800×g for 2 min). […] Preincubated solutions of enzyme (10 μM) and inhibitor (10 or 20 μM) were diluted 200-fold into a solution of PT855 (1 μM) at 37° C. Aliquots of this solution were withdrawn at various times and subjected to centrifugal gel filtration chromatography using PD SpinTrap™ G-25 columns. The fluorescence of the eluate was quantified, and the data were fit to a single exponential equation to obtain koff (FIG. 14, Tables 4 and 5).
Inhibitor Residence Time Measurements using a Spin Column Assay. […] Subsequently, 10 μL of the incubation mixture was diluted into 2 mL of the same buffer containing 1 μM of PT855, and 100 μL of this mixture was then aliquoted at different time points and loaded onto a PD SpinTrap™ G-25 column (Cytiva) that had been equilibrated with buffer prior to sample loading. […] The fluorescence intensities corresponding to loading diluted EI without the fluorescent competitor and loading the competitor alone were measured separately to determine the dynamic range and endpoint of the assay. […] Rates were calculated by fitting the change in fluorescence intensity over time to a one-phase association equation in GraphPad Prism.

[6] = 37° C., fluorescence competition

T1 sequence (P47205 1-299): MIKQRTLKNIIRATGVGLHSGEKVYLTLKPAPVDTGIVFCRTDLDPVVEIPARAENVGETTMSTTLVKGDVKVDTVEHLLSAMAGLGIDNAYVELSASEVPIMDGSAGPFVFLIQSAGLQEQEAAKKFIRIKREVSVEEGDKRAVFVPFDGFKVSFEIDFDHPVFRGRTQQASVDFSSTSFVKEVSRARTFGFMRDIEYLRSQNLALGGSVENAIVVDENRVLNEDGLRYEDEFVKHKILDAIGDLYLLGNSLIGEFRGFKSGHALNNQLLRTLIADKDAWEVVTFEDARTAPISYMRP

SMILES | Ki (paLpxC [1]; [6]) [pM] | tR (min) Fluorescence assay (paLpxC [1]; 37° C.) | koff (paLpxC [1]; read-out: Koff (s^−1)) [s⁻¹] | kon (paLpxC [1]) [µM⁻¹ s⁻¹] | MIC (P. aeruginosa PAO1 [2]) [µM] | MIC [3] [µM] | also measured
CC(CCn1ccc(-c2ccc(-c3cn(Cc4ccccn4)nn3)cc2)cc1=O)(C(=O)NO)S(C)(=O)=O (racemic) [PT914, N-hydroxy-2-methyl-2-(methylsulfonyl)-4-(2-oxo-4-(4-(1-(pyridin-2-ylmethyl)-1H-1,2,3-triazol-4-yl)phenyl)pyridin-1(2H)-yl)butanamide] | 5.5 ± 3.4 | 118.5 ± 44.0 min | 0.00016 ± 6e-05 | 37.2 ± 23 | 6.25 (≈ 3.27 µg/mL) | 0.2 (≈ 0.105 µg/mL) | residence time fold longer than 1 (paLpxC [1]; 37° C.): ~3 fold; MIC fold lower than that for PT810 (P. aeruginosa PAO1 [2]): 2 fold
CC1(Cn2cc(-c3ccc(-c4ccn(CCC(C)(C(=O)NO)S(C)(=O)=O)c(=O)c4)cc3)nn2)COC1 (racemic) [PT911, N-hydroxy-2-methyl-4-(4-(4-(1-((3-methyloxetan-3-yl)methyl)-1H-1,2,3-triazol-4-yl)phenyl)-2-oxopyridin-1(2H)-yl)-2-(methylsulfonyl)butanamide] |  |  |  |  | 25 (≈ 12.9 µg/mL) | 1.56 (≈ 0.804 µg/mL) | 
CC(CCn1ccc(-c2ccc(C(=O)NCc3ccccc3)cc2)cc1=O)(C(=O)NO)S(C)(=O)=O (racemic) [PT923, N-benzyl-4-(1-(4-(hydroxyamino)-3-methyl-3-(methylsulfonyl)-4-oxobutyl)-2-oxo-1,2-dihydropyridin-4-yl)benzamide] | 274 ± 76.6 | 8.0 ± 1.2 min | 0.0021 ± 0.0003 | 23.8 ± 18.8 | 25 (≈ 12.4 µg/mL) | 3.12 (≈ 1.55 µg/mL) | 
CC(CCn1ccc(-c2ccc(-c3cn(Cc4cccnc4)nn3)cc2)cc1=O)(C(=O)NO)S(C)(=O)=O (racemic) [PT917, N-hydroxy-2-methyl-2-(methylsulfonyl)-4-(2-oxo-4-(4-(1-(pyridin-3-ylmethyl)-1H-1,2,3-triazol-4-yl)phenyl)pyridin-1(2H)-yl)butanamide] | 3.2 ± 0.2 | 121.3 ± 4.4 min | 0.00014 ± 1e-05 | 42.8 ± 1.3 |  |  | residence time fold longer than 1 (paLpxC [1]; 37° C.): ~3 fold
C[C@@H](O)C(NC(=O)c1ccc(-c2cn(Cc3ccccc3)nn2)cc1)C(=O)NO (stereo partly drawn) [PT903, 4-(1-benzyl-1H-1,2,3-triazol-4-yl)-N-((3R)-3-hydroxy-1-(hydroxyamino)-1-oxobutan-2-yl)benzamide] |  |  |  |  | > 50 | > 12.5 | binding to paLpxC (Kon, Koff, tR, Ki) (paLpxC [1]; [6]): No binding was observed
CC(CCn1ccc(-c2ccc(-c3cnnn3Cc3ccccc3)cc2)cc1=O)(C(N)=O)S(C)(=O)=O (stereo not shown) [PT925, 4-(4-(4-(1-benzyl-1H-1,2,3-triazol-5-yl)phenyl)-2-oxopyridin-1(2H)-yl)-2-methyl-2-(methylsulfonyl)butanamide] |  | 9 min and 9.0 ± 0.9 min |  |  | 50 (≈ 25.3 µg/mL) | 12.5 (≈ 6.32 µg/mL) | 
CC(CCn1ccc(-c2ccc(NC(=O)Cc3ccccc3)cc2)cc1=O)(C(=O)NO)S(C)(=O)=O (racemic) [PT924, N-hydroxy-2-methyl-2-(methylsulfonyl)-4-(2-oxo-4-(4-(2-phenylacetamido)phenyl)pyridin-1(2H)-yl)butanamide] | 95.4 ± 16.2 | 4.0 ± 1.0 min | 0.0043 ± 0.0009 | 44.8 ± 5.4 | 50 (≈ 24.9 µg/mL) | 3.12 (≈ 1.55 µg/mL) | 
CC(CCn1ccc(-c2ccc(-c3cn(Cc4ccncc4)nn3)cc2)cc1=O)(C(=O)NO)S(C)(=O)=O (racemic) [PT915, N-hydroxy-2-methyl-2-(methylsulfonyl)-4-(2-oxo-4-(4-(1-(pyridin-4-ylmethyl)-1H-1,2,3-triazol-4-yl)phenyl)pyridin-1(2H)-yl)butanamide] |  |  |  |  | 50 (≈ 26.1 µg/mL) | 6.25 (≈ 3.27 µg/mL) | 
CC(CCn1ccc(-c2ccc(-c3cn(Cc4ccncn4)nn3)cc2)cc1=O)(C(=O)NO)S(C)(=O)=O (racemic) [PT916, N-hydroxy-2-methyl-2-(methylsulfonyl)-4-(2-oxo-4-(4-(1-(pyrimidin-4-ylmethyl)-1H-1,2,3-triazol-4-yl)phenyl)pyridin-1(2H)-yl)butanamide] | 4.2 ± 2.2 | 102.7 ± 20.2 min | 0.00017 ± 3e-05 | 44.3 ± 14.5 | 50 (≈ 26.2 µg/mL) | 3.12 (≈ 1.64 µg/mL) | 
CC(CCn1ccc(-c2ccc(-c3cn(CCO)nn3)cc2)cc1=O)(C(=O)NO)S(C)(=O)=O (racemic) [PT912, N-hydroxy-4-(4-(4-(1-(2-hydroxyethyl)-1H-1,2,3-triazol-4-yl)phenyl)-2-oxopyridin-1(2H)-yl)-2-methyl-2-(methylsulfonyl)butanamide] | 3.7 ± 2.3 | 92.3 ± 11.2 min | 0.00018 ± 2e-05 | 59.6 ± 22.9 | > 50 | > 12.5 | 
CC(CCn1ccc(-c2ccc(-c3cn(CC4CCCCC4)nn3)cc2)cc1=O)(C(=O)NO)S(C)(=O)=O (racemic) [PT910, 4-(4-(4-(1-(cyclohexylmethyl)-1H-1,2,3-triazol-4-yl)phenyl)-2-oxopyridin-1(2H)-yl)-N-hydroxy-2-methyl-2-(methylsulfonyl)butanamide] | 5.5 ± 3.4 | 100.2 ± 18.5 min | 0.00017 ± 3e-05 | 31 ± 3 | 50 (≈ 26.4 µg/mL) | 3.12 (≈ 1.65 µg/mL) | 
CC(CCn1ccc(-c2ccc(-c3cn(CC45CC(C4)C5)nn3)cc2)cc1=O)(C(=O)NO)S(C)(=O)=O (racemic) [PT913, 4-(4-(4-(1-(bicyclo[1.1.1]pentan-1-ylmethyl)-1H-1,2,3-triazol-4-yl)phenyl)-2-oxopyridin-1(2H)-yl)-N-hydroxy-2-methyl-2-(methylsulfonyl)butanamide] | 2.1 ± 1.6 | 123.8 ± 37.2 min and 124.0 ± 37.2 min | 0.00015 ± 5e-05 | 85.2 ± 32.5 | 12.5 (≈ 6.4 µg/mL) | 0.78 (≈ 0.399 µg/mL) | residence time fold longer than 1 (paLpxC [1]; 37° C.): ~3 fold; PAE (h) 4x (P. aeruginosa PAO1 [4]): 4 h and 4.0 ± 0.2 h
CC(CCn1ccc(-c2ccc(-c3cn(Cc4ccc([N+](=O)[O-])cc4)nn3)cc2)cc1=O)(C(=O)NO)S(C)(=O)=O (racemic) [PT918, N-hydroxy-2-methyl-2-(methylsulfonyl)-4-(4-(4-(1-(4-nitrobenzyl)-1H-1,2,3-triazol-4-yl)phenyl)-2-oxopyridin-1(2H)-yl)butanamide] | 7 ± 1 | 78.5 ± 8.4 min | 0.00021 ± 2e-05 | 30.7 ± 0.1 | 6.25 (≈ 3.54 µg/mL) | 0.1 (≈ 0.0567 µg/mL) | 
CC(CCn1ccc(-c2ccc(N)cc2)cc1=O)(C(=O)NO)S(C)(=O)=O (stereo not shown) [PT919] | 4 ± 3 | 121.15 ± 30 min |  |  |  |  | Kon (paLpxC [1]; [6]): 6.427e+07 ± 5.976e+07 M⁻¹ s⁻¹; koff (paLpxC [1]; [6]): 0.000143 ± 0.00003 s⁻¹; MIC (μM) (PAO1) (P. aeruginosa PAO1 [2]; wild-type P. aeruginosa PAO1): 12.5 µM (≈ 4.74 µg/mL); MIC (μM) (paEP) ([3]; efflux-pump mutant ΔMexABCDXY): 0.78 µM (≈ 0.296 µg/mL)
COc1ccc(-c2ccc(CNC3(C(=O)NO)CCS(=O)(=O)CC3)cc2F)cc1 [PT921, 4-(((2-fluoro-4′-methoxy-[1,1′-biphenyl]-4-yl)methyl)amino)-N-hydroxytetrahydro-2H-thiopyran-4-carboxamide 1,1-dioxide] | 14.4 ± 2.5 | 34.3 ± 1.0 min | 0.00049 ± 1e-05 | 34.5 ± 6.3 | 0.8 (≈ 0.338 µg/mL) | 0.1 (≈ 0.0422 µg/mL) | 
CC(CCn1ccc(-c2ccc(CN3CCOCC3)cc2)cc1=O)(C(=O)NO)S(C)(=O)=O (racemic) [PT904, N-hydroxy-2-methyl-2-(methylsulfonyl)-4-(4-(4-(morpholinomethyl)phenyl)-2-oxopyridin-1(2H)-yl)butanamide] | 96.8 ± 3 | 4.7 ± 0.2 min | 0.0035 ± 0.0001 | 36.4 ± 0.4 | 50 (≈ 23.2 µg/mL) |  | 
C=CCn1cc(-c2ccc(-c3ccn(CCC(C)(C(=O)NO)S(C)(=O)=O)c(=O)c3)cc2)nn1 (racemic) [PT907, 4-(4-(4-(1-allyl-1H-1,2,3-triazol-4-yl)phenyl)-2-oxopyridin-1(2H)-yl)-N-hydroxy-2-methyl-2-(methylsulfonyl)butanamide] | 6.1 ± 5.7 | 82.8 ± 26.0 min | 0.00022 ± 7e-05 | 52 ± 29.5 | 12.5 (≈ 5.89 µg/mL) | 0.78 (≈ 0.368 µg/mL) | tR (min) (Spin column assay) (paLpxC [5]; direct displacement): 146.5 ± 44.0 min; k (min^−1), spin-column assay (paLpxC [5]; first-order fit): 0.007 ± 0.002 min⁻¹
COc1ccc(-c2ccn(CCC(C)(C(=O)NO)S(C)(=O)=O)c(=O)c2)cc1 (racemic) [PT902, N-hydroxy-4-(4-(4-methoxyphenyl)-2-oxopyridin-1(2H)-yl)-2-methyl-2-(methylsulfonyl)butanamide] |  |  |  |  | 3.12 (≈ 1.23 µg/mL) | 0.8 (≈ 0.316 µg/mL) | 
